The subject of assay [1] is NCIH460, HCT116, MDAMB231/U251. Nature of the assay: Anti-cancer screen, mean GI50 over the cell lines. The class given is cell-based. As to conditions: in µM. In a few lines: (§1)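 HCT116, NCIH460 and U251 cells (5000/well, DMEM + 10% FBS) seeded 24 h, then treated 48 h in triplicate at 0.01, 0.1, 1, 10, 100 μM; time-zero plate kept. MTT 3 h, formazan in DMSO read at 570 nm; GI50, TGI, LC50 derived.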

The test system of assay [2] is HDAC (Mouse Liver Extract). Nature of the assay: Histone Deacetylase (HDAC) Inhibition Assay using Boc-Lys (Ac)-AMC Substrate. The settings on record: mouse liver enzyme, NA = No Activity; for HDAC Inhibition 1 μM / HDAC Inhibition 10 μM: in % (unit assumed). Type of assay: biochemical. In a few lines: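 Mouse liver extract was the HDAC source. It was preincubated with inhibitor for 5 min at 30° C, then incubated with Boc-Lys(Ac)-AMC substrate for 30 min at 30° C. Trypsin stop solution was added for a 20–30 min development step, and released AMC was read by fluorescence (ex 360/365, em 440/460 nm) with blank subtraction.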

In the next assay the test system is NCIH 460 cells. Nature of the assay: Anti-cancer screen (MTT), NCIH460. Type of assay: cell-based. The settings on record: Homo sapiens, NCI-H460, NCIH460 cells, 48 hours, MTT; for GI50: concentration to decrease % growth by 50%; for IC100: concentration to decrease % growth by 100%, read-out: NCIH460 TGI; for LC50: concentration to decrease % growth by 150%. In a few lines: as §1

A further assay relates to MDAMB231/U251. As to the kind of experiment: Anti-cancer screen (MTT), MDAMB231/U251. Type of assay: cell-based. As to conditions: MDAMB231/U251 cells, 48 hours; for GI50: concentration to decrease % growth by 50%; for IC100: concentration to decrease % growth by 100%, read-out: MDAMB231/U251 TGI; for LC50: concentration to decrease % growth by 150%. In a few lines: as §1

For a further assay, the system named is HCT 116 cells. As to the kind of experiment: Anti-cancer screen (MTT), HCT116. Type of assay: cell-based. The settings on record: Homo sapiens, HCT-116, HCT116 cells, 48 hours, MTT; for GI50: concentration to decrease % growth by 50%; for IC100: concentration to decrease % growth by 100%, read-out: HCT116 TGI; for LC50: concentration to decrease % growth by 150%. In a few lines:
as §1

The structures appear in SMILES notation.

Regarding `O=C(CCCCCCC(=O)N1CCN(CC(=O)Nc2nc3ccccc3s2)CC1)NO` [Example 29, 8-{4-[2-(1,3-Benzothiazol-2-ylamino)-2-oxoethyl]piperazin-1-yl}-N-hydroxy-8-oxo octanamide], the “Mean GI50” value in assay [1] was 13.9. Besides, in assay [2], the “HDAC Inhibition 1 μM” value was 61.41, the “HDAC Inhibition 10 μM” value turned out to be 97.00 and the IC50 is 0.76 µM. For the same compound, in the assay with NCIH 460 cells, the GI50 was 0.8 µM, the IC100 was 93 µM and the LC50 is more than 100 µM. Also, in the assay on MDAMB231/U251, the GI50 stood at 11 µM, the IC100 stood at 55 µM and the 50% lethal concentration (LC50) worked out at 95 µM. Further, in the assay with HCT 116 cells, the GI50 turned out to be 30 µM, the IC100 was more than 100 µM and the LC50 is more than 100 µM.
`CC(=O)SCCCCCC(=O)N1CCN(C(=O)CNc2nc3ccc(C)cc3s2)CC1` [Example 3, N-{2-[4-(6-thioacetylhexanoyl)piperazin-1-yl]-2-oxoethyl}-6-methyl-1,3-benzo thiazol-2-amine]: in assay [1], the “Mean GI50” value is more than 100. In addition, in assay [2], the “HDAC Inhibition 1 μM” value worked out at 42.40 and the “HDAC Inhibition 10 μM” value turned out to be 86.74. In the assay with NCIH 460 cells, the GI50 was more than 100 µM, the IC100 was more than 100 µM and the LC50 is more than 100 µM. In addition, in the assay on MDAMB231/U251, halving of growth (GI50) required 48 µM, the IC100 was more than 100 µM and the LC50 was more than 100 µM. Also, in the assay on HCT 116 cells, the GI50 is 49 µM, the IC100 came to 99 µM and the LC50 is more than 100 µM.
Take `CC(=O)NCCCCCC(=O)N1CCN(CC(=O)Nc2nc3ccccc3s2)CC1` [Example 43]: the “Mean GI50” value in assay [1] is on record as more than 100. Moreover, in assay [2], the “HDAC Inhibition 1 μM” value came to 2.61 and the “HDAC Inhibition 10 μM” value turned out to be 5.24. Further, in the assay with NCIH 460 cells, the GI50 is more than 100 µM, the IC100 is more than 100 µM and the LC50 is more than 100 µM. In the assay on MDAMB231/U251, the GI50 was more than 100 µM, the IC100 was more than 100 µM and the LC50 is more than 100 µM. Moreover, in the assay with HCT 116 cells, the concentration for 50% growth inhibition (GI50) was 90 µM, the IC100 is more than 100 µM and the LC50 was more than 100 µM.
As to `N[C@H](CO)C(=O)NCCCCCC(=O)N1CCN(CC(=O)Nc2nc3ccccc3s2)CC1` [Example 44], the “Mean GI50” value in assay [1] is reported as more than 100. For the same compound, in assay [2], the “HDAC Inhibition 1 μM” value turned out to be 5.45 and the “HDAC Inhibition 10 μM” value is 1.79. In addition, in the assay on NCIH 460 cells, the GI50 is more than 100 µM, the IC100 was more than 100 µM and the LC50 was more than 100 µM. Moreover, in the assay on MDAMB231/U251, the GI50 is more than 100 µM, the IC100 was more than 100 µM and the LC50 was more than 100 µM. For the same compound, in the assay with HCT 116 cells, the GI50 was more than 100 µM, the IC100 is more than 100 µM and the 50% lethal concentration (LC50) is more than 100 µM.
For the compound `CC(=O)SCCCCC(=O)N1CCN(CC(=O)Nc2ccccc2)CC1` [Example 16, 2-[4-(5-Thioacetylpentanoyl)piperazin-1-yl]-N-(phenyl-2-yl)acetamide], in assay [1], the “Mean GI50” value was 29.67. In assay [2], the “HDAC Inhibition 1 μM” value is 29.26 and the “HDAC Inhibition 10 μM” value was 68.52. Also, in the assay with NCIH 460 cells, it took 30 µM to inhibit growth by half (GI50), the IC100 is 52 µM and the LC50 is more than 100 µM. In the assay with MDAMB231/U251, the GI50 stood at 1 µM, the IC100 is more than 100 µM and the LC50 is more than 100 µM. Also, in the assay on HCT 116 cells, the GI50 is 58 µM, the IC100 was more than 100 µM and the LC50 was more than 100 µM.
For the compound `CC(=O)SCCCCC(=O)N1CCN(CC(=O)Nc2nc3ccc(C)cc3s2)CC1` [Example 11, 2-[4-(5-Thioacetylpentanoyl)piperazin-1-yl]-N-(6-methyl-1,3-benzothiazol-2-yl)acetamide], the “Mean GI50” value in assay [1] is listed as 2.10. For the same compound, in assay [2], the “HDAC Inhibition 1 μM” value is 31.75, the “HDAC Inhibition 10 μM” value worked out at 65.63 and the IC50 is 6.5 µM. Further, in the assay with NCIH 460 cells, the GI50 came to 0.3 µM, the IC100 was 0.9 µM and the LC50 is 8 µM. Moreover, in the assay with MDAMB231/U251, the GI50 is 1 µM, the IC100 was 8 µM and the LC50 is more than 100 µM. In the assay on HCT 116 cells, the GI50 was found to be 5 µM, the IC100 was 40 µM and the 50% lethal concentration (LC50) is more than 100 µM.
`CC(=O)SCCCCCC(=O)N1CCN(CC(=O)Nc2nc3c(C)cccc3s2)CC1` [Example 10, 2-[4-(6-Thioacetylhexanoyl)piperazin-1-yl]-N-(4-methyl-1,3-benzothiazol-2-yl)acetamide]: the “Mean GI50” value in assay [1] is listed as 1.80. Also, in assay [2], the “HDAC Inhibition 1 μM” value is on record as 54.06, the “HDAC Inhibition 10 μM” value came out at 87.16 and the IC50 stood at 1.5 µM. In the assay on NCIH 460 cells, it took 0.5 µM to inhibit growth by half (GI50), the IC100 came out at 2 µM and the LC50 came to 95 µM. In the assay with MDAMB231/U251, halving of growth (GI50) required 2 µM, the IC100 was 9 µM and the LC50 is more than 100 µM. In addition, in the assay on HCT 116 cells, the GI50 was determined as 3 µM, the IC100 is 50 µM and the LC50 was more than 100 µM.
Take `O=C(CN1CCN(C(=O)CCCCCS)CC1)Nc1nc2ccccc2s1` [Example 24, N-1,3-benzothiazol-2-yl-2-[4-(6-mercaptohexanoyl)piperazin-1-yl]acetamide]: in assay [1], the “Mean GI50” value amounted to 21.90. In addition, in assay [2], the “HDAC Inhibition 1 μM” value came out at 4 and the “HDAC Inhibition 10 μM” value turned out to be 27.4. In the assay with NCIH 460 cells, growth was halved (GI50) at 60 µM, the IC100 was more than 100 µM and the LC50 is more than 100 µM. Besides, in the assay with MDAMB231/U251, the GI50 was determined as 5 µM, the IC100 is 66 µM and the LC50 is more than 100 µM. Moreover, in the assay on HCT 116 cells, growth was halved (GI50) at 0.7 µM, the IC100 was more than 100 µM and the LC50 was more than 100 µM.

As a reminder, the IC50 is the concentration needed to halve the response being measured. Low readings indicate greater potency in that assay, high ones weaker potency in that assay. As usually defined, the GI50 is the concentration that inhibits growth by half. One may read the LC50 as the concentration that kills 50% of the test population. Lower therefore signals greater toxicity.

These data come from US20070088043A1, “Novel HDAC inhibitors” (ORCHID RESEARCH LABORATORIES LIMITED., priority 2005, published 2007).
